Experimental data as given in patent publication EP0412158A1, “ONCOSTATIC DRUG” (priority 1987, dated 1988).
Where “and” joins values, the source holds several entries; their conditions need not be identical. Identical values can stand only once. Marks after values point to notes of the source that are not given here.

Columns and labels:
[1] = tested on: human breast cancer (MX-1); test: Human breast cancer MX-1, SRC method (Examples 29 and 30); format: in vivo, female ICR/cd-1 mice; conditions: for antineoplastic activity: result in words
[2] = tested on: MM-46 breast cancer; format: in vivo, female C3H/He mice; conditions: 100 mg/kg, ip × 9
Method: The active compounds, I to L, mentioned above were severally dissolved in distilled water to obtain aqueous solutions containing the compounds in a fixed concentration of 10 mg/ml. To female C3H/He mice (five weeks old) to which the MM-46 breast cancer had been transplanted in a ratio of 1.0 x 10^5 cells per mouse, the aqueous solutions were continuously administered at a dose of 100 mg/kg of body weight by intraperitoneal injection for nine days to determine the mice's periods of survival. For comparison, mice to which no aqueous solution was administered and mice to which aminonitrosourea was administered were similarly tested.

[3] = tested on: MM-46 breast cancer; test: MM-46 breast cancer, evaluation by size of tumor (Examples 21 to 24); format: in vivo, female C3H/He mice; conditions: for Average weight of tumor / Number of tumorless mice /total number of mice / T/control: 100 mg/kg; for Average weight of tumor / Number of tumorless mice /total number of mice: ip × 9; for T/control: ip×9, tumor weight
Method: A polymolybdate, K6[Mo7022(02)2]8H20 (Compound I), and the aforementioned other compounds (Compounds J to L) were severally dissolved in distilled water to obtain aqueous solutions containing the compounds in a fixed concentration of 10 mg/mi. To female C3H/He mice (five weeks old) to which MM-46 breast cancer had been transplanted, the aqueous solutions were administered to test the compounds for antineoplastic activity. To be more specific, the MM-46 breast cancer was transplanted to the mice at a ratio of 5.0 x 10^5 cells per mouse and the aqueous solutions were continuously administered (at a dose of 100 mg/kg of body weight) by intraperineal injection for nine days. On elapse of 14 days after the stop of the administration, the size of tumor in the mice was measured. For comparison, mice to which the aqueous solution was not administered and mice to which aminonitroso urea was administered were similarly tested.

[4] = tested on: methyl cholanthrene A; test: Methyl cholanthrene A tumor, evaluation by extension of period of survival (Examples 7 to 11); format: in vivo, female BALB/C mice; conditions: No. 2, 25 mg/kg
Method: The aforementioned compounds, A to D, were severally dissolved in distilled water to obtain aqueous solutions containing the compounds in a fixed concentration of 10 mg/ml. To the female BALB/C mice (five weeks old) to which methyl cholanthrene A had been transplanted in a ratio of 1.0 x 10^5 cells per mouse, […] to determine the mices' periods of survival. For comparison, mice to which no antineoplastic drug was administered and mice to which aminonitroso urea was administered were similarly tested.

[5] = tested on: methyl cholanthrene A tumor; test: Antineoplastic activity against transplanted methyl cholanthrene A tumor, evaluation by size of tumor (Examples 1 to 6); format: in vivo, female BALB/C mice; conditions: No. 3, 25 mg/kg, ip×9
Method: By dissolving alkylammonium salt of polymolybdic acid [NH3C3H7(iso)]s [Mo7O24] • 3H2O (Compound A) and other compounds (Compounds B to D) severally in distilled water, aqueous solutions containing the compounds in a fixed concentration of 10 mg/ml were obtained. These aqueous solutions were administered to female BALB/C mice (five weeks old) to which methyl cholanthrene A tumor had been transplanted to test the compounds for antineoplastic activity. To be specific, methyl cholanthrene A was transplanted to the mice in a ratio of 1.0 x 10^5 cells per mouse and the aqueous solutions were continuously administered to the mice by intraperitoneal injection ([…]) for nine days. On elapse of 14 days following the start of the administration, the tumors in the mice were measured. For comparison, mice to which no antineoplastic .drug was administered and mice to which aminonitroso urea was administered were tested by following the procedure described above.

[6] = tested on: methyl cholanthrene A; test: Methyl cholanthrene A tumor, evaluation by elongation of period of survival (Examples 31, 34 and 35); format: in vivo, female BALB/C mice
Method: The active compounds, M to 0, mentioned above were severally dissolved in distilled water to obtain aqueous solutions containing the compounds in a fixed concentration of 10 mg/ml. To be specific, to female BALB/C mice (five weeks old) to which methyl cholanthrene A had been transplanted in a ratio of 1.0 x 10^5 cells per mouse, […] for 9 consecutive days to determine the mice's periods of survival. For comparison, mice to which no aqueous solution was administered and mice to which aminonitrosourea was administered were similarly tested.

[7] = tested on: methyl cholanthrene A tumor; test: Methyl cholanthrene A tumor, evaluation by size of tumor (Examples 31 to 33); format: in vivo, female BALB/C mice; design: Average weight of tumor ± SE / Range of average tumor weight after elapse of 21 days ± SE: unit not given here; conditions: 25 mg/kg, ip × 9
Method: A heteropoly acid salt, Na5[IM06O24]•34H2O (Compound M), and other compounds (Compounds N and O ) were severally dissolved in distilled water to obtain aqueous solutions containing the salts in a fixed concentration of 10 mg/ml. To female BALB/C mice (five weeks old) to which methyl cholanthrene A tumor had been transplanted, the aqueous solutions were administered to test the compounds for antineoplastic activity. To be specific, the methyl cholanthrene A was transplanted to the mice at a ratio of 1.0 x 10^5 cells per mouse and the aqueous solutions were administered ([…]) for 9 consecutive days by intraperitoneal injection. On elapse of 14 and 21 days after the stop of the administration, the sizes of tumors in the mice were measured. For comparison, mice to which no aqueous solution was administered and mice to which aminonitrosourea was administered were similarly tested.

[8] = 129 mg/kg po(×5), individual mice
[9] = 257 mg/kg po(×5), individual mice
[10] = 100 mg/kg ip(×5), individual mice
[11] = 100 mg/kg ip(×5), individual mice, listed as Compound II
[12] = 200 mg/kg ip(×5), individual mice, listed as Compound II

In the case of `CCCCCCNC(=O)n1cc(F)c(=O)[nH]c1=O` [HCFU(Mifur ol)], the T/C ([1]; 129 mg/kg po(×5)) is reported as 61.15* %, the T7/To ([1]; 129 mg/kg po(×5), group mean) is reported as 0.844±0.040 and the W7/Wo ([1]; 129 mg/kg po(×5), group mean) is reported as 1.104±0.037. For the same compound, the “Body weight 7 days after transplantation (W7)” value (from here on “Body weight 7 days”) [1, 8] was 21.3 g and 22.7 g and 21.8 g and 23.7 g, the T7/To [1, 8] was 0.929 and 0.885 and 0.741 and 0.821 and the “Tumor 7 days after transplantation (T7)” value [1, 8] was 13.0 omu and 11.5 omu (2×) and 10.5 omu. The W7/Wo [1, 8] was 1.087 and 1.207 and 1.028 and 1.097, the T/C ([1]; 257 mg/kg po(×5)) was 66.82* % and the T7/To ([1]; 257 mg/kg po(×5), group mean) was 0.922±0.042. The W7/Wo ([1]; 257 mg/kg po(×5), group mean) was 1.080±0.035, the “Body weight 7 days” value [1, 9] was 21.7 g and 23.2 g and 18.2 g and 19.4 g and the T7/To [1, 9] was 0.896 and 1.037 and 0.833 and 0.923. The “Tumor 7 days after transplantation (T7)” value [1, 9] was 13.0 omu and 14.0 omu and 12.5 omu and 12.0 omu and the W7/Wo [1, 9] was 1.109 and 1.166 and 1.011 and 1.037.
For K6 [Mo7O23(O2)] • 8H2O [Compound K], the “Average number of days of survival” value [2] was 32.1±2.7(8) days, the “Average weight of tumor after 14 days” value [2] was 1140± 221(8) mg and the “Ratio of elongation of life (5)” value [2] was 94.5. The “Average weight of tumor” value [3] was 1139.5±221.1(8 ) mg, the “Number of tumorless mice /total number of mice” value [3] was 0/8 and the T/control [3] was 0.399.
For K6 [Mo7O22(O2)2] • 8H2O [Compound I], the T/C ([1]; 100 mg/kg ip(×5)) was 57.28 8* %, the T7/To ([1]; 100 mg/kg ip(×5), group mean) was 0.790±0.077 and the W7/Wo ([1]; 100 mg/kg ip(×5), group mean) was 1.068±0.008. For the same compound, the “Body weight 7 days” value [1, 10] was 21.0 g and 20.5 g and 21.4 g and 20.6 g, the T7/To [1, 10] was 0.875 and 0.941 and 0.760 and 0.586 and the “Tumor 7 days after transplantation (T7)” value [1, 10] was 10.5 omu and 8.0 omu and 9.5 omu and 8.5 omu. For the same compound, the W7/Wo [1, 10] was 1.061 and 1.057 and 1.092 and 1.062, the antineoplastic activity [1] was “strong antineoplastic activity” and the “Average number of days of survival” value [2] was 33.1±2.9(8) days. The “Average weight of tumor after 14 days” value [2] was 1135 ±185(8) mg, the “Ratio of elongation of life (5)” value [2] was 100.8 and the “ratio of elongation of life” value [2] was 100.8%. For the same compound, the “Average weight of tumor” value [3] was 1134.9±184.5(1 0) mg, the “Number of tumorless mice /total number of mice” value [3] was 0/10 and the T/control [3] was 0.397. For the same compound, the toxicity ([3]; 100 mg/kg.ip for nine days, judged by increase of body weight, result in words) was “very low toxicity”.
For “[NH3C3H7(iso)]6 [Mo7O24H] mixture [Compound C]”, the “Average number of days of survival” value ([4]; ip×9) was 30.2±2.0(10) days, the “Number of toxically killed mice/total number of mice” value ([4]; ip×9) was 0/10 and the “Change in body weight” value ([4]; ip×9, D1~D9) was -2.19 g. For the same compound, the T/control ([4]; ip×9, days of survival) was 134.2, the “Average weight of tumor” value [5] was 1425.2±130.6(10) mg and the “Number of tumorless mice /total number of mice” value [5] was 0/10. The “Change in body weight” value ([5]; body weight 13 days after transplantation) was -2.19 g and the T/control ([5]; tumor weight) was 0.553.
In the case of “[NH3 (iso)]6 [Mo7O22(O2)2] • 5H20 [Compound J]”, the T/C ([1]; 100 mg/kg ip(×5)) is reported as 63.53* %, the T7/To ([1]; 100 mg/kg ip(×5), group mean) is reported as 0.876±0.037 and the T7/To [1, 11] is reported as 0.913 and 0.792 and 0.840 and 0.962. For the same compound, the “Tumor 7 days after transplantation (T7)” value [1, 11] was 10.5 omu (2×) and 9.5 omu and 12.5 omu, the T/C ([1]; 200 mg/kg ip(×5)) was 73.02* % and the T7/To ([1]; 200 mg/kg ip(×5), group mean) was 1.007±0.087. The T7/To [1, 12] was 1.077 and 1.222 and 0.852 and 0.880, the “Tumor 7 days after transplantation (T7)” value [1, 12] was 14.0 omu and 11.0 omu (2×) and 11.5 omu and the antineoplastic activity [1] was “same degree of antineoplastic activity as that of HCFU”. The “Average number of days of survival” value [2] was 40.6±4.1(6) days, the “Average weight of tumor after 14 days” value [2] was 385±152 (8) mg and the “Ratio of elongation of life (5)” value [2] was 146.2. For the same compound, the “Average weight of tumor” value [3] was 385.1±152.3(10 ) mg, the “Number of tumorless mice /total number of mice” value [3] was 5/10 and the T/control [3] was 0.135.
For “[NH4]3 H6 [CoMo6O24] • 7H20 [Compound N]”, the “Average number of days of survival ±SE” value ([6]; 25 mg/kg, ip × 9) was 39.30±3.73(10)*** * days, the ILS ([6]; 25 mg/kg, ip × 9) was 57.0% and the “Number of mice of no tumor/total number of mice” value ([6]; 25 mg/kg, ip × 9, observed 60 days after transplantation) was 2/10. The “Change in body weight after elapse of 10 days” value ([6]; mouse, in vivo) was “(+)0.56”, the “Range of average tumor weight after elapse of 21 days ± SE” value [7] was 693.6±144.3 (9) and the “Average weight of tumor ± SE” value ([7]; after elapse of 14 days) was 448.5±166.0 (10). The T/C ([7]; tumor weight after 14 days) was 0.600 and the T/C ([7]; tumor weight after 21 days) was 0.301.
